This passage reports IC50 results from patent US6855730B2, “3-methylidenyl-2-indolinone modulators of protein kinase” (Sugen, Inc., priority 1998, dated 2005).

The subject of one assay is SKOV3 cells. Briefly: SKOV3 growth assay (2% FBS). The class given is cell-based. The following applies: Homo sapiens, SK-OV-3, read-out: SKOV3 growth (2% FBS) IC50.
Another assay addresses T1, PDGFR-β (Homo sapiens, UniProt P09619).
T1 construct: host or cells: NIH 3T3
Put plainly: Biochemical PDGFR assay (ELISA, PDGFR-β expressing NIH 3T3 cell lysate). To be noted: read-out: bio PDGF IC50. An outline of the steps:
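PDGFR-β from NIH 3T3 cell lysate captured on anti-PDGFR (28D4C10)-coated plates; compound preincubated 30 min, then 20 μM ATP kinase reaction 30 min at room temperature, stopped with EDTA. Phosphotyrosine detected by anti-phosphotyrosine antibody, peroxidase conjugate and ABTS/H2O2, read at 410 nm.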

The target in assay [1] is Myc-GyrB-FGFR fusion protein (Homo sapiens, UniProt P11362). Put plainly: Biochemical FGFR assay (ELISA). The following applies: read-out: bio fgfR1 IC50.
Myc-GyrB-FGFR fusion protein, sequence (P11362 478-767 limits assumed): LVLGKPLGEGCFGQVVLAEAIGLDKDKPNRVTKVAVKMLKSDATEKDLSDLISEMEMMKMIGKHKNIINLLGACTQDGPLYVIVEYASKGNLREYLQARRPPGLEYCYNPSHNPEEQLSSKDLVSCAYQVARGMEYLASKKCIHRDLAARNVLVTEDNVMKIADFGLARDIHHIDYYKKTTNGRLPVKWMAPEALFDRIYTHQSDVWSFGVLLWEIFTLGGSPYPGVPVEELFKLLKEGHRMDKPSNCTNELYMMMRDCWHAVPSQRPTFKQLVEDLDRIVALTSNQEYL
The target of a further assay is T2, flkGST (Homo sapiens, UniProt P35968).
T2 construct: GST
T2 sequence (P35968 786-1356 limits assumed): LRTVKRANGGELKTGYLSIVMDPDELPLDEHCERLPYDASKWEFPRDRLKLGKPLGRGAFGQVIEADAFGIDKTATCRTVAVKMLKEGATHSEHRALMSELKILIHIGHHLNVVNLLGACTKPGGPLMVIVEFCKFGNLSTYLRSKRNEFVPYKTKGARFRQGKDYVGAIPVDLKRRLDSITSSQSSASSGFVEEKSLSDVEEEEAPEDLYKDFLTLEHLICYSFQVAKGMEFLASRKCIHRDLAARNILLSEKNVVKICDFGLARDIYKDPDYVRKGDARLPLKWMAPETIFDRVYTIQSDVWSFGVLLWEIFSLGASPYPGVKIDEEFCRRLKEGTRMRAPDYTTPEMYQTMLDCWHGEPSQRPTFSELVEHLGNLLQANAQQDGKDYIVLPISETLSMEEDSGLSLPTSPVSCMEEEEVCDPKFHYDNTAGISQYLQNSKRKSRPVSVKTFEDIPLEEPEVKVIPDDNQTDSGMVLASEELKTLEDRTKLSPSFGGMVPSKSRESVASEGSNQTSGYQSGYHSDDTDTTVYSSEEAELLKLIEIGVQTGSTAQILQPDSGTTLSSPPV
Briefly: bio flkGST assay. The class given is biochemical.

T1 sequence (P09619 33-1106): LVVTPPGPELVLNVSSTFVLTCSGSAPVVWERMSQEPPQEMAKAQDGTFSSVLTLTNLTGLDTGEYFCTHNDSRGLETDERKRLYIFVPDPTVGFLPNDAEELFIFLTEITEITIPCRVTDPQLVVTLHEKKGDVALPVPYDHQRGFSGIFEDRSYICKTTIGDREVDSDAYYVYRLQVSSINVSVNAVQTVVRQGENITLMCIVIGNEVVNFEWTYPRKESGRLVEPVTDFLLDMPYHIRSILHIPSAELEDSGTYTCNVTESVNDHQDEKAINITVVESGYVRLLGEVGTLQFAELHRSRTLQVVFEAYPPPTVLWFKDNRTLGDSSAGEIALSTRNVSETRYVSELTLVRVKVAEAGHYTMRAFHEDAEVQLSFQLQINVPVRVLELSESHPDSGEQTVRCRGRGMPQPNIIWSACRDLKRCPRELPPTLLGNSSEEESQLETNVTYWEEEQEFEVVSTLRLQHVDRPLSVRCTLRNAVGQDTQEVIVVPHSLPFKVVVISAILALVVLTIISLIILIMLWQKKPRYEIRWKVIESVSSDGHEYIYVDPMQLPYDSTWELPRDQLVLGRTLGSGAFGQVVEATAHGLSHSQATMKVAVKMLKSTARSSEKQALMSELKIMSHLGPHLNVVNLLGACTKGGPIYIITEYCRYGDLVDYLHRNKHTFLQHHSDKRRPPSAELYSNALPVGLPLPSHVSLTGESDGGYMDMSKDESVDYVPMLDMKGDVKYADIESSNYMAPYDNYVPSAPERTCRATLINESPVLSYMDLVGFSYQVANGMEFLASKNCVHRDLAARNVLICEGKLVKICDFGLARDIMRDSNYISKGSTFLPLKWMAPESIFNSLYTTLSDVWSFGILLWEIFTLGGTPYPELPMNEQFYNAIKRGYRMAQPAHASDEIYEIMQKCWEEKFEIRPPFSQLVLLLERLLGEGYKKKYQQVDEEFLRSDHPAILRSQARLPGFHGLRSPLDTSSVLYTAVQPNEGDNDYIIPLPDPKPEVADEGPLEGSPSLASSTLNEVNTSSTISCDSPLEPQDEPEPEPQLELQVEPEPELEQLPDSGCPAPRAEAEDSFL

For orientation: IC50 means the concentration needed to halve the response being measured. For `COc1c(C(C)C)cc(/C=C2/C(=O)Nc3cc(O)ccc32)cc1C(C)C` [Example 4, 3-(3,5-Diisopropyl-4-methoxybenzylidene)-6-hydroxy-1,3-dihydroindol-2-one], the IC50 in the assay on SKOV3 cells stood at 7 µM.
In the case of `CC(=O)Nc1ccc2c(c1)NC(=O)/C2=C/c1ccc(OCCN2CCOCC2)c(C(C)(C)C)c1` [Example 55, N-{3-[3-tert-Butyl-4-(2-morpholin-4-ylethoxy)-benzylidene]-2-oxo-2,3-dihydro-1H-indol-6-yl}-acetamide], the IC50 at PDGFR-β was greater than 100 µM.
Same read-out and setting: for `COc1ccc2c(c1)NC(=O)/C2=C/c1ccc(OC)c(-c2ccsc2)c1` [Example 64, 6-Methoxy-3-(4-methoxy-3-thiophen-3-ylbenzylidene)-1,3-dihydroindol-2-one] the value was greater than 100 µM.
As for `COc1cc(C)c(C=C2C(=O)Nc3ccccc32)cc1C(C)C` [Example 8, 3-(5-Isopropyl-4-methoxy-2-methylbenzylidene)-1,3-dihydroindol-2-one], the half-maximal inhibitory concentration (IC50) with SKOV3 cells is 0.96 µM.
Take `COc1cc(C)c(C=C2C(=O)Nc3ccc(Cl)cc32)cc1C(C)C` [Example 9, 5-Chloro-3-(5-isopropyl-4-methoxy-2-methylbenzylidene)-1,3-dihydroindol-2-one]: the IC50 in the assay with SKOV3 cells turned out to be 14.5 µM.
Same read-out and setting: as for `COc1ccc(/C=C2/C(=O)Nc3ccccc32)cc1C1CCCC1` [Example 10, 3-(3-Cyclopentyl-4-methoxybenzylidene)-1,3-dihydroindol-2-one], the figure is 11.2 µM; as for `COc1ccc(/C=C2/C(=O)Nc3ccc(Cl)cc32)cc1C1CCCCC1` [Example 51, 5-Chloro-3-(3-cyclohexyl-4-methoxybenzylidene)-1,3-dihydroindol-2-one], 14.5 µM; as for `COc1c(C(C)C)cc(/C=C2/C(=O)Nc3ccc(C)cc32)cc1C(C)C` [Example 19, 3-(3,5-Diisopropyl-4-methoxybenzylidene)-5-methyl-1,3-dihydroindol-2-one], 5.9 µM.
In the case of `Cc1cccc2c1/C(=C/c1ccc3c(c1)CCC(C)(C)O3)C(=O)N2` [Example 41, 3-(2,2-Dimethylchroman-6-ylmethylene)-4-methyl-1,3-dihydroindol-2-one], the IC50 at PDGFR-β is greater than 100 µM.
Consider `Cc1cccc2c1/C(=C/c1cc3ccccc3[nH]1)C(=O)N2` [Example 166, 3-(1H-indol-2-ylmethylene)-4-methyl-1,3-dihydro-indol-2-one], for which the IC50 on PDGFR-β was greater than 100 µM; in assay [1], greater than 20 µM.
As to `COc1ccc2c(c1)/C(=C\c1cc(C(C)C)c(OC)c(C(C)C)c1)C(=O)N2` [Example 17, 3-(3,5-Diisopropyl-4-methoxybenzylidene)-5-methoxy-1,3-dihydroindol-2-one], the IC50 in the assay on SKOV3 cells turned out to be 6.1 µM.
With `COc1c(C(C)C)cc(/C=C2/C(=O)Nc3ccc(C(C)=O)cc32)cc1C(C)C` [Example 5, 5-Acetyl-3-(3,5-diisopropyl-4-methoxybenzylidene)-1,3dihydroindol-2-one], in the assay with SKOV3 cells, the IC50 amounted to 5.4 µM.
Still for that read-out and setting: for `COc1ccc(/C=C2/C(=O)Nc3ccccc32)cc1C1CCCCC1` [Example 12, 3-(3-Cyclohexyl-4-methoxybenzylidene)-1,3-dihydroindol-2-one] the value was 10.1 µM.
Turning to `COc1ccccc1-c1ccc2c(c1)NC(=O)/C2=C\c1[nH]c(C)cc1CCC(=O)O` [Example 109, 3-{2-[6-(2-Methoxyphenyl)-2-oxo-1,2-dihydroindol-3-ylidenemethyl]-5-methyl-1H-pyrrol-3-yl}-propionic acid], the concentration for half-maximal inhibition (IC50) at PDGFR-β is 2.79 µM; in assay [1], greater than 20 µM; against flkGST it was 2.68 µM.
For `CCOC(=O)c1c(C)[nH]c(/C=C2\C(=O)Nc3cc(-c4ccccc4OC)ccc32)c1CCC(=O)O` [Example 110, 4-(2-Carboxyethyl)-5-[6-(2-methoxyphenyl)-2-oxo-1,2-dihydro-indol-3-ylidenemethyl]-2-methyl-1H-pyrrol-3-yl-carboxylic acid ethyl ester] the same measures were 3.15 µM, 17.5 µM and 3.05 µM.
For the molecule `COc1c(C)cc(/C=C2/C(=O)Nc3ccc(Cl)cc32)cc1C` [Example 21, 5-Chloro-3-(4-methoxy-3,5-dimethylbenzylidene)-1,3-dihydroindol-2-one], in the assay with SKOV3 cells, the IC50 came to 13 µM.
With `CCOC(=O)c1c(C)[nH]c(/C=C2\C(=O)Nc3cc(-c4ccc(F)cc4)ccc32)c1CCC(=O)O` [Example 108, 4-(2-Carboxyethyl)-5-[6-(4-fluorophenyl)-2-oxo-1,2-dihydro-indol-3-ylidenemethyl]-2-methyl-1H-pyrrole-3-carboxylic acid ethyl ester], the IC50 at PDGFR-β came out at 2.97 µM; in assay [1], 2.57 µM; at flkGST, 1.08 µM.
In the case of `COc1ccc(/C=C2/C(=O)Nc3ccc(F)cc32)cc1C1CCCCC1` [Example 43, 3-(3-Cyclohexyl-4-methoxybenzylidene)-5-fluoro-1,3-dihydroindol-2-one], on PDGFR-β, the IC50 is 11 µM.
On to `COc1ccc(/C=C2/C(=O)Nc3ccc(F)cc32)cc1C(C)C` [Example 44, 5-Fluoro-3-(3-isopropyl-4-methoxybenzylidene)-1,3-dihydroindol-2-one], for which the IC50 at PDGFR-β is greater than 100 µM.
For `COc1c(C(C)C)cc(/C=C2/C(=O)Nc3ccc(N)cc32)cc1C(C)C` [Example 20, 5-Amino-3-(3,5-diisopropyl-4-methoxy-benzylidene)-1,3-dihydroindol-2-one], the concentration for half-maximal inhibition (IC50) with SKOV3 cells came out at 35.5 µM.
In the case of `COC(=O)c1ccc2c(c1)/C(=C\c1cc(C(C)C)c(OC)c(C(C)C)c1)C(=O)N2` [Example 6, 3-(3,5-Diisopropyl-4-methoxybenzylidene)-2-oxo-2,3-dihydro-1H-indole-5-carboxylic acid methyl ester], in the assay on SKOV3 cells, the 50% inhibitory concentration (IC50) came to 19.4 µM.
In the case of `COc1ccc(/C=C2/C(=O)Nc3ccc(F)cc32)cc1-c1ccccc1` [Example 37, 5-Fluoro-3-(6-methoxybiphenyl-3-ylmethylene)-1,3-dihydroindol-2-one], the IC50 at PDGFR-β is greater than 100 µM.
As to `Cc1cc(CCC(=O)O)c(/C=C2\C(=O)Nc3cc(-c4ccc(F)cc4)ccc32)[nH]1` [Example 107, 3-{2-[6-(4-Fluorophenyl)-2-oxo-1,2-dihydroindol-3-ylidenemethyl]-5-methyl-1H-pyrrol-3-yl}propionic acid], the IC50 was less than 0.78 µM at PDGFR-β, 6.16 µM in assay [1] and 2.15 µM at flkGST.
On to `O=C1Nc2ccc(F)cc2/C1=C\c1ccc2c(c1)CCO2` [Example 42, 3-(2,3-Dihydrobenzofuran-5-ylmethylene)-5-fluoro-1,3-dihydroindol-2-one], for which the IC50 at PDGFR-β came out at 43.1 µM.
Consider `O=C1Nc2ccc(Br)cc2/C1=C/c1cc2ccccc2[nH]1` [Example 165, 5-Bromo-3-(1H-indol-2-ylmethylene)-1,3-dihydro-indol-2-one], for which the half-maximal inhibitory concentration (IC50) was 48.7 µM at PDGFR-β and greater than 20 µM in assay [1].
Regarding `CC(=O)Nc1ccc2c(c1)NC(=O)/C2=C/c1ccc(OCCN2CCOCC2)c(-c2ccsc2)c1` [Example 50, N-{3-[4-(2-Morpholin-4-ylethoxy)-3-thiophen-3-ylbenzylidene]-2-oxo-2,3-dihydro-1H-indol-6-yl}-acetamide], the IC50 at PDGFR-β was greater than 100 µM.
`Cc1cc(CCC(=O)O)c(/C=C2\C(=O)Nc3ccc(Cl)cc32)[nH]1` [Example 111, 3-[2-(5-Chloro-2-oxo-1,2-dihydroindol-3-ylidenemethyl)-5-methyl-1H-pyrrol-3-yl]propionic acid]: the IC50 on PDGFR-β was found to be 0.01 µM; in assay [1], 0.47 µM; against flkGST, 0.43 µM.
